We go through one compound from patent publication US8163661B2, “Luminescence measurement system” (Olympus Corporation, priority 2007, dated 2012).

Assay [1] concerns HeLa cell (pGL3 transfected). The note with it: pGL3 transfected to HeLa cell, measured with time.
Procedure: Specifically, in the experiments conducted by the present inventor, pGL3 was transfected to HeLa cell and, by making use of FCCP acting as an uncoupler, the production of ATP in mitochondria was suspended and then the luminescence intensity on this occasion was measured with time by making use of LUMINOVIEW (LV100) (trade name).
A further assay relates to cytoplasmic ATP. Conditions: 30 minutes after treatment with FCCP; cited from earlier work.

As for `N#CC(C#N)=NNc1ccc(OC(F)(F)F)cc1` [FCCP, carbonyl cyanide p-(trifluoromethoxy) phenylhydrazone], the “luminescence intensity after FCCP” value in assay [1] is “not attenuated”. Also, in the assay with cytoplasmic ATP, the “concentration of cytoplasmic ATP relative to steady state” value is listed as “about 50 % of that of steady state”.
